PubChem BioAssay (NCI)
“And” between values parts separate entries of the source, which are not always exact repeats. Equal entries are not always repeated.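 Compound exposure: 48 hours, 5 concentrations, 96-well plates. Abbreviation: GI50, concentration required for 50% inhibition of growth. TGI: concentration producing complete growth inhibition.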

Tests used:
Assay in all cases: DTP human tumour cell line panel, 48 h
SF-295 CNS = test system: SF-295 CNS
SK-MEL-2 melanoma = test system: SK-MEL-2 melanoma
NCI-H460 lung = test system: NCI-H460 lung
MOLT-4 leukemia = test system: MOLT-4 leukemia
HCC-2998 colon = test system: HCC-2998 colon
OVCAR-8 ovarian = test system: OVCAR-8 ovarian
HOP-62 NSCLC = test system: HOP-62 NSCLC

Row | SMILES | TGI (SF-295 CNS) | TGI (SK-MEL-2 melanoma) | TGI (NCI-H460 lung) | TGI (MOLT-4 leukemia) | TGI (HCC-2998 colon) | TGI (OVCAR-8 ovarian) | TGI (HOP-62 NSCLC) | GI50 (HCC-2998 colon) | GI50 (SF-295 CNS) | GI50 (SK-MEL-2 melanoma) | GI50 (NCI-H460 lung) | GI50 (MOLT-4 leukemia) | GI50 (OVCAR-8 ovarian) | GI50 (HOP-62 NSCLC)
1 | COC/C=C\COC | > 100 µM | > 100 µM | > 100 µM | > 100 µM | > 100 µM | > 100 µM | > 100 µM |  |  |  |  |  |  | 
2 | C=C(CC(NC(=O)c1ccc(C(CC)Cc2cnc3nc(N)nc(N)c3n2)cc1)C(=O)O)C(=O)O (stereo unspecified) |  |  | > 100 µM | > 100 µM |  | > 100 µM | 0.742 µM | 0.0265 µM |  |  |  |  |  | 
3 | CCC[CH2][Sn]([Cl])([Cl])[CH2]CCC | 2.92 µM | 1.54 µM | 3.72 µM | 2.53 µM | 2.32 µM | 7.02 µM | 3.36 µM | 1.1 µM | 1.53 µM | 0.495 µM | 1.75 µM | 0.356 µM | 1.88 µM | 1.92 µM
4 | Cc1ccc(NC(=O)CCc2nc(N)nc(N)c2-c2ccccc2)cc1C | > 100 µM | > 100 µM | > 100 µM | > 100 µM | > 100 µM | > 100 µM | > 100 µM |  |  |  |  |  |  | 
5 | COc1ccc(OC)c(NC(=O)CCC/C(CC(=O)c2ccc(O)c(OC)c2)=N\Nc2nnc(C)n2N)c1 | > 100 µM | > 100 µM | > 100 µM | > 100 µM | > 100 µM | > 100 µM | > 100 µM |  |  |  |  |  |  | 
6 | CC(C)(C)c1cc(C(O)(C(F)(F)F)C(F)(F)F)c2c(c1)C(C(F)(F)F)(C(F)(F)F)OC(C)(C(C)(C)C)N2 (stereo unspecified) | 16.9 µM | 17.7 µM | 9.25 µM | 7.96 µM | 93.6 µM |  |  |  |  |  |  |  |  | 
7 | CCOC(=O)C(=O)Nc1ccccc1C |  | > 100 µM | > 100 µM | > 100 µM | > 100 µM | > 100 µM | > 100 µM |  |  |  |  |  |  | 
8 | CC(Oc1ccc2c(-c3ccccc3)cc(=O)oc2c1)C(=O)O (stereo unspecified) | > 100 µM |  | > 100 µM | > 100 µM | > 100 µM | > 100 µM | > 100 µM |  |  |  |  |  |  | 
9 | O=C(Cc1nc2ccccc2c(=O)n1-c1ccccc1Cl)c1ccncc1 | > 100 µM | > 100 µM | > 100 µM | > 100 µM | > 100 µM | > 100 µM | > 100 µM |  |  |  |  |  |  | 
10 | CCC(=O)c1c(NOC2OCC(OC(C)=O)C(OC(C)=O)C2OC(C)=O)nc(OC)n(C)c1=O (stereo unspecified) | > 100 µM |  | > 100 µM | > 100 µM | > 100 µM | > 100 µM | > 100 µM |  |  |  |  |  |  | 
11 | COc1ccc(NC(=O)CC2SC(=Nc3ccccc3C)NC2=O)c([N+](=O)[O-])c1 (stereo unspecified) | > 100 µM | > 100 µM | > 100 µM | > 100 µM | > 100 µM | > 100 µM | > 100 µM |  |  |  |  |  |  | 
12 | COc1ccc(NC(=O)/C(=C/c2ccccc2)C(C)=O)cc1 | 28.6 µM | 28.6 µM | 62.5 µM | 32.6 µM | 33.5 µM | 51.5 µM | 32.3 µM |  |  |  |  |  |  | 
13 | COC(=O)/C=C(C)/C=C/C1OC(C)OCC1O (stereo unspecified) | > 100 µM |  | > 100 µM | > 100 µM | > 100 µM | > 100 µM | > 100 µM |  |  |  |  |  |  | 
14 | O=C(CCC(=O)Nc1ccc(Cl)c(Cl)c1)CC(=O)c1ccc(Br)cc1 |  | > 100 µM |  | > 100 µM |  | > 100 µM |  |  |  |  |  |  |  | 
15 | CCOC(=O)C1=C(Nc2ccc(Cl)cc2Cl)OCC1=O | > 100 µM | > 100 µM | > 100 µM | > 100 µM | > 100 µM | > 100 µM | > 100 µM |  |  |  |  |  |  | 
16 | CC1=CC(=O)CC2(C)CC[C@@H]3C[C@]12OC3(C)C (stereo partly specified) | > 100 µM | > 100 µM | > 100 µM | > 100 µM | > 100 µM | > 100 µM | > 100 µM |  |  |  |  |  |  | 
17 | CCC1CC2C(=O)N(c3ccccc3)C(=O)C2c2[nH]c3ccccc3c21 (stereo unspecified) | 29.8 µM |  | 64.6 µM | > 100 µM | > 100 µM | 35.2 µM |  |  |  |  |  |  |  | 
18 | COc1ccc(S(=O)(=O)N2CCN(C(=O)c3ccc(-c4ccccc4)cc3)CC2C(=O)NO)cc1 (stereo unspecified) | 12.5 µM and > 100 µM |  | 12.5 µM and > 100 µM | 95.9 µM |  | 12.5 µM and > 100 µM |  |  | 3.85 µM and 25.7 µM |  | 3.62 µM and 29.3 µM | 15.9 µM |  | 
19 | C=C1C(=O)OC2C/C(C)=C/CC/C(C)=C/CCC3(COC(C)=O)OC3CC12 (stereo unspecified) | 29.3 µM | 14.4 µM | 25.2 µM | 26.3 µM | 21.5 µM | 19.8 µM | 34.7 µM |  |  |  |  |  |  | 
20 | O=c1/c(=C/c2ccccc2[N+](=O)[O-])sc2nc3ccccc3n12 | 41.4 µM | > 46.4 µM | > 46.4 µM | > 46.4 µM | > 46.4 µM | > 46.4 µM | > 46.4 µM |  |  |  |  |  |  | 
21 | N/N=C1\C(=O)N(C2CCCCCC2)C(=O)C1C(=O)NC1CCCCCC1 (stereo unspecified) | > 100 µM | 37.6 µM | > 100 µM | 55.7 µM | 43.9 µM | > 100 µM | > 10 µM |  |  |  |  |  |  | 
22 | CCNC(=O)COc1ccc(Br)cc1Br | > 100 µM | > 100 µM | > 100 µM | > 100 µM | > 100 µM |  | > 100 µM |  |  |  |  |  |  | 
23 | CC1=C[C@H]2c3c([nH]c4ccccc34)C(c3c[nH]c4ccccc34)[C@H]2CC1 (stereo partly specified) |  |  | 8.21 µM | 5.89 µM | 12.4 µM | 28 µM |  |  |  |  |  |  |  | 
24 | CCCNC(=O)C1C(=O)C(=O)N(CCC)C1=O (stereo unspecified) |  | > 100 µM | > 100 µM | > 100 µM | > 100 µM | > 100 µM | > 100 µM |  |  |  |  |  |  | 
